Tests used:
Assay in all cases: relative viability (nuclei count vs DMSO), 5 days (fraction); higher = more cells survive
HARA = tested on: HARA
In short: (§1)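 A single step with final 0.05% Triton X-100, 1% formaldehyde and 1 ug/ml Hoechst fixed the cells and stained nuclei 5 days after treatment. Lung cancer cell lines in 1536-well plates had been treated by pin tool the day after seeding with one drug alone or a fixed anchor-drug dose plus five library-drug doses (not always all listed) in √10 steps, and nuclei were counted on 4× images. Relative viability is the ratio of nuclei in treated wells to nuclei in vehicle wells, taken as the median of duplicate plates.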

NCI-H727 = tested on: NCI-H727
In short: as §1

EKVX = tested on: EKVX
In short: as §1

NCI-H650 = tested on: NCI-H650
In short: as §1

NCI-H2126 = tested on: NCI-H2126
In short: as §1

LOU-NH91 = tested on: LOU-NH91
In short: as §1

NCI-H2405 = tested on: NCI-H2405
In short: as §1

H3255 = tested on: H3255
In short: as §1

PC-3 [JPC-3] = tested on: PC-3 [JPC-3]
In short: as §1

NCI-H23 = tested on: NCI-H23
In short: as §1

HCC-827 = tested on: HCC-827
In short: as §1

LCLC-103H = tested on: LCLC-103H
In short: as §1

NCI-H3122 = tested on: NCI-H3122
In short: as §1

ChaGo-K-1 = tested on: ChaGo-K-1
In short: as §1

HOP-62 = tested on: HOP-62
In short: as §1

NCI-H596 = tested on: NCI-H596
In short: as §1

SW 900 = tested on: SW 900
In short: as §1

201T = tested on: 201T
In short: as §1

NCI-H1975 = tested on: NCI-H1975
In short: as §1

Cc1csc(=NC2CCCCC2)n1/N=C/c1ccc(O)c(O)c1O [MIM1] + NC(=O)Nc1cc(-c2cccc(F)c2)sc1C(=O)N[C@H]1CCCNC1 [AZD7762] (partner 0.2 µM)
relative viability (HARA; first compound 0.2 µM): 0.345
relative viability (HARA; first compound 0.6325 µM): 0.412
relative viability (HARA; first compound 2 µM): 0.189
relative viability (HARA; first compound 6.325 µM): 0.219
relative viability (HARA; first compound 20 µM): 0.148
relative viability (NCI-H727; first compound 0.2 µM): 0.663
relative viability (NCI-H727; first compound 0.6325 µM): 0.573
relative viability (NCI-H727; first compound 2 µM): 0.435
relative viability (NCI-H727; first compound 6.325 µM): 0.528
relative viability (NCI-H727; first compound 20 µM): 0.348
relative viability (EKVX; first compound 0.2 µM): 0.697
relative viability (EKVX; first compound 0.6325 µM): 0.616
relative viability (EKVX; first compound 2 µM): 0.625
relative viability (EKVX; first compound 6.325 µM): 0.599
relative viability (EKVX; first compound 20 µM): 0.44
relative viability (NCI-H650; first compound 0.2 µM): 1.05
relative viability (NCI-H650; first compound 0.6325 µM): 1.03
relative viability (NCI-H650; first compound 2 µM): 0.866
relative viability (NCI-H650; first compound 6.325 µM): 0.975
relative viability (NCI-H650; first compound 20 µM): 0.271
relative viability (NCI-H2126; first compound 0.2 µM): 0.934
relative viability (NCI-H2126; first compound 0.6325 µM): 0.985
relative viability (NCI-H2126; first compound 2 µM): 1.07
relative viability (NCI-H2126; first compound 6.325 µM): 0.913
relative viability (NCI-H2126; first compound 20 µM): 0.786
relative viability (LOU-NH91; first compound 0.2 µM): 0.731
relative viability (LOU-NH91; first compound 0.6325 µM): 0.779
relative viability (LOU-NH91; first compound 2 µM): 0.677
relative viability (LOU-NH91; first compound 6.325 µM): 0.637
relative viability (LOU-NH91; first compound 20 µM): 0.279
relative viability (NCI-H2405; first compound 0.2 µM): 0.835
relative viability (NCI-H2405; first compound 0.6325 µM): 0.806
relative viability (NCI-H2405; first compound 2 µM): 0.772
relative viability (NCI-H2405; first compound 6.325 µM): 0.667
relative viability (NCI-H2405; first compound 20 µM): 0.849
relative viability (H3255; first compound 0.2 µM): 0.863
relative viability (H3255; first compound 0.6325 µM): 0.85
relative viability (H3255; first compound 2 µM): 0.783
relative viability (H3255; first compound 6.325 µM): 0.571
relative viability (H3255; first compound 20 µM): 0.371
relative viability (PC-3 [JPC-3]; first compound 0.2 µM): 0.899
relative viability (PC-3 [JPC-3]; first compound 0.6325 µM): 0.801
relative viability (PC-3 [JPC-3]; first compound 2 µM): 0.719
relative viability (PC-3 [JPC-3]; first compound 6.325 µM): 0.724
relative viability (PC-3 [JPC-3]; first compound 20 µM): 0.751
relative viability (NCI-H23; first compound 0.2 µM): 0.277
relative viability (NCI-H23; first compound 0.6325 µM): 0.213
relative viability (NCI-H23; first compound 2 µM): 0.192
relative viability (NCI-H23; first compound 6.325 µM): 0.263
relative viability (NCI-H23; first compound 20 µM): 0.139
relative viability (HCC-827; first compound 0.2 µM): 0.245
relative viability (HCC-827; first compound 0.6325 µM): 0.235
relative viability (HCC-827; first compound 2 µM): 0.165
relative viability (HCC-827; first compound 6.325 µM): 0.189
relative viability (HCC-827; first compound 20 µM): 0.304
relative viability (LCLC-103H; first compound 0.2 µM): 0.691
relative viability (LCLC-103H; first compound 0.6325 µM): 0.79
relative viability (LCLC-103H; first compound 2 µM): 0.759
relative viability (LCLC-103H; first compound 6.325 µM): 0.698
relative viability (LCLC-103H; first compound 20 µM): 0.399
relative viability (NCI-H3122; first compound 0.2 µM): 0.945
relative viability (NCI-H3122; first compound 0.6325 µM): 0.978
relative viability (NCI-H3122; first compound 2 µM): 0.973
relative viability (NCI-H3122; first compound 6.325 µM): 0.472
relative viability (NCI-H3122; first compound 20 µM): 0.19
relative viability (ChaGo-K-1; first compound 0.2 µM): 0.869
relative viability (ChaGo-K-1; first compound 0.6325 µM): 0.883
relative viability (ChaGo-K-1; first compound 2 µM): 0.907
relative viability (ChaGo-K-1; first compound 6.325 µM): 0.596
relative viability (ChaGo-K-1; first compound 20 µM): 0.248
relative viability (HOP-62; first compound 0.2 µM): 0.557
relative viability (HOP-62; first compound 0.6325 µM): 0.662
relative viability (HOP-62; first compound 2 µM): 0.756
relative viability (HOP-62; first compound 6.325 µM): 0.506
relative viability (HOP-62; first compound 20 µM): 0.0832
relative viability (NCI-H596; first compound 0.2 µM): 1.17
relative viability (NCI-H596; first compound 0.6325 µM): 1.22
relative viability (NCI-H596; first compound 2 µM): 1.03
relative viability (NCI-H596; first compound 6.325 µM): 1.11
relative viability (NCI-H596; first compound 20 µM): 0.819
relative viability (SW 900; first compound 0.2 µM): 0.669
relative viability (SW 900; first compound 0.6325 µM): 0.615
relative viability (SW 900; first compound 2 µM): 0.592
relative viability (SW 900; first compound 6.325 µM): 0.296
relative viability (SW 900; first compound 20 µM): 0.19
relative viability (201T; first compound 0.2 µM): 0.62
relative viability (201T; first compound 0.6325 µM): 0.691
relative viability (201T; first compound 2 µM): 0.588
relative viability (201T; first compound 6.325 µM): 0.453
relative viability (201T; first compound 20 µM): 0.305
relative viability (NCI-H1975; first compound 0.2 µM): 0.765
relative viability (NCI-H1975; first compound 0.6325 µM): 0.628
relative viability (NCI-H1975; first compound 2 µM): 0.697
relative viability (NCI-H1975; first compound 6.325 µM): 0.549
relative viability (NCI-H1975; first compound 20 µM): 0.572
